Source: PubChem BioAssay AID2060484 (Molecular Pharmacology Branch, DTP, NCI, 2025)

Test system: SUM149PT spheroids with HUVEC/MSC, viability
Experiment: Anticancer human tumor SUM149PT cell line growth inhibition [GQUAD];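 further: spheroids exposed to drugs for seven days before readout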;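 on viability, T/C: percent viability relative to DMSO vehicle control taken as 100%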
Conditions: for IC50: curve of first compound; for viability, T/C: stronger effect = lower value; active means viability on the fitted dose curve at most 10% of control; inactive means the rest
Procedure, shortened: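 Tumor cells were grown as complex spheroids with HUVEC endothelial cells and mesenchymal stem cells as stroma. G-quadruplex stabilizers were combined with targeted agents over half-log dilutions from near the clinical Cmax, or from 10 microM.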

[1] = second compound 0.0316 µM, first compound 0.0316 µM
[2] = second compound 0.0316 µM, first compound 0.1 µM
[3] = second compound 0.0316 µM, first compound 0.316 µM
[4] = second compound 0.0316 µM, first compound 1 µM
[5] = second compound 0.0316 µM, first compound 3.16 µM
[6] = second compound 0.0316 µM, first compound 10 µM
[7] = second compound 0.1 µM, first compound 0.0316 µM
[8] = second compound 0.1 µM, first compound 0.1 µM
[9] = second compound 0.1 µM, first compound 0.316 µM
[10] = second compound 0.1 µM, first compound 1 µM
[11] = second compound 0.1 µM, first compound 3.16 µM
[12] = second compound 0.1 µM, first compound 10 µM
[13] = second compound 0.316 µM, first compound 0.0316 µM
[14] = second compound 0.316 µM, first compound 0.1 µM
[15] = second compound 0.316 µM, first compound 0.316 µM
[16] = second compound 0.316 µM, first compound 1 µM
[17] = second compound 0.316 µM, first compound 3.16 µM
[18] = second compound 0.316 µM, first compound 10 µM
[19] = second compound 1 µM, first compound 0.0316 µM
[20] = second compound 1 µM, first compound 0.1 µM
[21] = second compound 1 µM, first compound 0.316 µM
[22] = second compound 1 µM, first compound 1 µM
[23] = second compound 1 µM, first compound 3.16 µM
[24] = second compound 1 µM, first compound 10 µM
[25] = second compound 3.16 µM, first compound 0.0316 µM
[26] = second compound 3.16 µM, first compound 0.1 µM
[27] = second compound 3.16 µM, first compound 0.316 µM
[28] = second compound 3.16 µM, first compound 1 µM
[29] = second compound 3.16 µM, first compound 3.16 µM
[30] = second compound 3.16 µM, first compound 10 µM
[31] = second compound 10 µM, first compound 0.0316 µM
[32] = second compound 10 µM, first compound 0.1 µM
[33] = second compound 10 µM, first compound 0.316 µM
[34] = second compound 10 µM, first compound 1 µM
[35] = second compound 10 µM, first compound 3.16 µM
[36] = second compound 10 µM, first compound 10 µM

C=CCn1c(=O)c2cnc(Nc3ccc(N4CCN(C)CC4)cc3)nc2n1-c1cccc(C(C)(C)O)n1 + CN(C)c1ccc(Nc2c3ccc(NC(=O)CCN4CCCC4)cc3nc3cc(NC(=O)CCN4CCCC4)ccc23)cc1
102 nM: IC50 (second compound 1 µM)
196 nM: IC50 (second compound 0.0316 µM)
155 nM: IC50 (second compound 0.316 µM)
174 nM: IC50 (second compound 0.1 µM)
active: viability, T/C [17] 8.18% | viability, T/C [18] 6.73% | viability, T/C [24] 7.97% | viability, T/C [29] 7.8% | viability, T/C [30] 7.28% | viability, T/C [36] 8.81%
inactive: viability, T/C [1] 93.8% | viability, T/C [2] 72.7% | viability, T/C [3] 32.3% | viability, T/C [4] 19.8% | viability, T/C [5] 11.4% | viability, T/C [6] 7.42% | viability, T/C [7] 92.8% | viability, T/C [8] 69.2% | viability, T/C [9] 28.1% | viability, T/C [10] 20.1% | viability, T/C [11] 9.53% | viability, T/C [12] 9.35% | viability, T/C [13] 95.8% | viability, T/C [14] 62.1% | viability, T/C [15] 30% | viability, T/C [16] 16.4% | viability, T/C [19] 78% | viability, T/C [20] 50.4% | viability, T/C [21] 28.5% | viability, T/C [22] 16.4% | viability, T/C [23] 9.65% | viability, T/C [25] 87.7% | viability, T/C [26] 54.1% | viability, T/C [27] 29.4% | viability, T/C [28] 17.9% | viability, T/C [31] 89.1% | viability, T/C [32] 56.6% | viability, T/C [33] 28% | viability, T/C [34] 17.1% | viability, T/C [35] 9.36%
130 nM: IC50 (second compound 10 µM)
121 nM: IC50 (second compound 3.16 µM)

CC(C)(O)C1CCC(Nc2ccc3ncc(-c4cccc(C(F)(F)F)c4)n3n2)CC1 (stereo not drawn) + CN(C)c1ccc(Nc2c3ccc(NC(=O)CCN4CCCC4)cc3nc3cc(NC(=O)CCN4CCCC4)ccc23)cc1
789 nM: IC50 (second compound 10 µM)
> 10000 nM: IC50 (second compound 0.0316 µM) | IC50 (second compound 0.1 µM)
inactive: viability, T/C [1] 98.7% | viability, T/C [2] 84.6% | viability, T/C [3] 75% | viability, T/C [4] 61.5% | viability, T/C [5] 53.6% | viability, T/C [6] 54.2% | viability, T/C [7] 102% | viability, T/C [8] 92.8% | viability, T/C [9] 77.8% | viability, T/C [10] 58% | viability, T/C [11] 49.1% | viability, T/C [12] 54.3% | viability, T/C [13] 86.4% | viability, T/C [14] 89.2% | viability, T/C [15] 76.5% | viability, T/C [16] 52.8% | viability, T/C [17] 44.7% | viability, T/C [18] 50% | viability, T/C [19] 89.6% | viability, T/C [20] 82% | viability, T/C [21] 78.2% | viability, T/C [22] 57.3% | viability, T/C [23] 35.9% | viability, T/C [24] 42.2% | viability, T/C [25] 81.6% | viability, T/C [26] 78.6% | viability, T/C [27] 74.7% | viability, T/C [28] 54.1% | viability, T/C [29] 33.8% | viability, T/C [30] 37.6% | viability, T/C [31] 78.2% | viability, T/C [32] 73.1% | viability, T/C [33] 66.7% | viability, T/C [34] 47% | viability, T/C [35] 20.9% | viability, T/C [36] 18.3%
1250 nM: IC50 (second compound 3.16 µM)
1760 nM: IC50 (second compound 0.316 µM)
1550 nM: IC50 (second compound 1 µM)

Cc1[nH]c2ccccc2c1CCNCc1ccc(/C=C/C(=O)NO)cc1 + CN(C)c1ccc(Nc2c3ccc(NC(=O)CCN4CCCC4)cc3nc3cc(NC(=O)CCN4CCCC4)ccc23)cc1
190 nM: IC50 (second compound 3.16 µM)
253 nM: IC50 (second compound 0.0316 µM)
237 nM: IC50 (second compound 0.1 µM)
133 nM: IC50 (second compound 10 µM)
231 nM: IC50 (second compound 0.316 µM)
202 nM: IC50 (second compound 1 µM)
inactive: viability, T/C (second compound 0.0316 µM, first compound 0.000999 µM) 103% | viability, T/C (second compound 0.0316 µM, first compound 0.00316 µM) 98% | viability, T/C (second compound 0.0316 µM, first compound 0.00999 µM) 96.5% | viability, T/C [1] 102% | viability, T/C (second compound 0.0316 µM, first compound 0.0999 µM) 85.4% | viability, T/C [3] 41.5% | viability, T/C (second compound 0.1 µM, first compound 0.000999 µM) 97.8% | viability, T/C (second compound 0.1 µM, first compound 0.00316 µM) 97.1% | viability, T/C (second compound 0.1 µM, first compound 0.00999 µM) 96.6% | viability, T/C [7] 90.7% | viability, T/C (second compound 0.1 µM, first compound 0.0999 µM) 87.6% | viability, T/C [9] 37.4% | viability, T/C (second compound 0.316 µM, first compound 0.000999 µM) 91.2% | viability, T/C (second compound 0.316 µM, first compound 0.00316 µM) 96.8% | viability, T/C (second compound 0.316 µM, first compound 0.00999 µM) 88.8% | viability, T/C [13] 91.1% | viability, T/C (second compound 0.316 µM, first compound 0.0999 µM) 89.8% | viability, T/C [15] 35.1% | viability, T/C (second compound 1 µM, first compound 0.000999 µM) 90.9% | viability, T/C (second compound 1 µM, first compound 0.00316 µM) 88.5% | viability, T/C (second compound 1 µM, first compound 0.00999 µM) 84.3% | viability, T/C [19] 85.5% | viability, T/C (second compound 1 µM, first compound 0.0999 µM) 81.7% | viability, T/C [21] 29.6% | viability, T/C (second compound 3.16 µM, first compound 0.000999 µM) 81.6% | viability, T/C (second compound 3.16 µM, first compound 0.00316 µM) 88.5% | viability, T/C (second compound 3.16 µM, first compound 0.00999 µM) 86.5% | viability, T/C [25] 84.5% | viability, T/C (second compound 3.16 µM, first compound 0.0999 µM) 72.5% | viability, T/C [27] 32.1% | viability, T/C (second compound 10 µM, first compound 0.000999 µM) 90% | viability, T/C (second compound 10 µM, first compound 0.00316 µM) 84.7% | viability, T/C (second compound 10 µM, first compound 0.00999 µM) 82.6% | viability, T/C [31] 84.3% | viability, T/C (second compound 10 µM, first compound 0.0999 µM) 58% | viability, T/C [33] 25.9%

O=C(NO)c1cnc(N2CCN(S(=O)(=O)c3ccc4ccccc4c3)CC2)nc1 + CN(C)c1ccc(Nc2c3ccc(NC(=O)CCN4CCCC4)cc3nc3cc(NC(=O)CCN4CCCC4)ccc23)cc1
261 nM: IC50 (second compound 10 µM)
325 nM: IC50 (second compound 0.0316 µM)
active: viability, T/C [4] 0.96% | viability, T/C [5] 1.31% | viability, T/C [6] 3.07% | viability, T/C [10] 0.82% | viability, T/C [11] 1.32% | viability, T/C [12] 2.31% | viability, T/C [16] 0.47% | viability, T/C [17] 1.57% | viability, T/C [18] 1.8% | viability, T/C [22] 0.55% | viability, T/C [23] 2.23% | viability, T/C [24] 1.4% | viability, T/C [28] 0.33% | viability, T/C [29] 0.17% | viability, T/C [30] 1.59% | viability, T/C [34] 0.97% | viability, T/C [35] 2.45% | viability, T/C [36] 1.01%
inactive: viability, T/C [1] 108% | viability, T/C [2] 89.4% | viability, T/C [3] 54.2% | viability, T/C [7] 116% | viability, T/C [8] 98.7% | viability, T/C [9] 54% | viability, T/C [13] 104% | viability, T/C [14] 98.1% | viability, T/C [15] 51% | viability, T/C [19] 93% | viability, T/C [20] 96% | viability, T/C [21] 49.7% | viability, T/C [25] 86.6% | viability, T/C [26] 90.9% | viability, T/C [27] 52.6% | viability, T/C [31] 87.6% | viability, T/C [32] 70.2% | viability, T/C [33] 47.4%
335 nM: IC50 (second compound 3.16 µM)
326 nM: IC50 (second compound 0.1 µM)
322 nM: IC50 (second compound 0.316 µM)
314 nM: IC50 (second compound 1 µM)
